Test results reported in patent US12139520B2 (priority 2020, dated 2024).
Bridge positions count the residues as written; N and C are the ends. Square brackets hold non-standard residues; d marks the D form. Peptide text beside a SMILES is read from it. Hyp = O=C(O)[C@@H]1C[C@@H](O)CN1

How the values were obtained:
hAM1 receptor = hAM1 receptor (Homo sapiens, UniProt O60895+Q16602); assay: cAMP assay for in vitro receptor activation, hAM1-R; format: cell-based; details: cAMP assay, hAM1 receptor; read-out: hAM1R EC50
Summary of the method: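 Stable hAM1 cells (monoclonal) plated 8000/well; buffer DPBS, 0.05% casein, 0.5 mM IBMX; cAMP read-out.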

hAMY3 receptor = target: T1, hAMY3 receptor (Homo sapiens, UniProt O60896+P30988); assay: cAMP assay for in vitro receptor activation, hAMY3-R; format: cell-based; details: cAMP assay, hAMY3 receptor; read-out: hAMY3R EC50
T1 sequence (P30988 25-474): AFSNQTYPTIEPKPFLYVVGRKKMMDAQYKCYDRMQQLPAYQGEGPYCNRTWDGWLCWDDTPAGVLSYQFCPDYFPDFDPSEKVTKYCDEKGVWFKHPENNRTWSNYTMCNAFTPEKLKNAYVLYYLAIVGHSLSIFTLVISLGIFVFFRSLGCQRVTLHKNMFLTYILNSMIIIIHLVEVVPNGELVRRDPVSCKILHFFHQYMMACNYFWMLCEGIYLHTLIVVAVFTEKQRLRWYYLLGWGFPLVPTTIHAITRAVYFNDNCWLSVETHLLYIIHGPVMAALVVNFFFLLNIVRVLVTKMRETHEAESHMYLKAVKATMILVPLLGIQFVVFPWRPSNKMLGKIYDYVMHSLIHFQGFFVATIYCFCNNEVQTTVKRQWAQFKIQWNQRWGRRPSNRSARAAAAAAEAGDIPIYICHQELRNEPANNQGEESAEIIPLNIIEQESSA
T1 sequence (O60896 24-148 partner): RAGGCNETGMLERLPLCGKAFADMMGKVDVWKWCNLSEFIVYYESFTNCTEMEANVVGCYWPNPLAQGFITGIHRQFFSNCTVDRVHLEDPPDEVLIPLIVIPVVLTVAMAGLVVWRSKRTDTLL
Summary of the method: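 Graded compound concentrations were applied for 30 min at room temperature to stably hAMY3-expressing cells in DPBS, 0.05% casein, 0.5 mM IBMX; cAMP detected by TR-FRET.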

[1] = Physical stability of peptide analogues (Thioflavin T fibrillation); format: physicochemical; details: maximum ThT signal normalized between hAMY maximum and buffer background; 40° C., shaking, four days; pH 7 per table title
Summary of the method: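 Maximum ThT emission at 480 nm, after LOESS smoothing, is given as percent of the span from buffer background to hAMY. Conditions: 50 mM buffer at pH 4 or 7, 4 μM dye, 40 °C, repeated shaking, readings every 10 min for four days.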

Sequence of hAM1 receptor (Q16602 23-461): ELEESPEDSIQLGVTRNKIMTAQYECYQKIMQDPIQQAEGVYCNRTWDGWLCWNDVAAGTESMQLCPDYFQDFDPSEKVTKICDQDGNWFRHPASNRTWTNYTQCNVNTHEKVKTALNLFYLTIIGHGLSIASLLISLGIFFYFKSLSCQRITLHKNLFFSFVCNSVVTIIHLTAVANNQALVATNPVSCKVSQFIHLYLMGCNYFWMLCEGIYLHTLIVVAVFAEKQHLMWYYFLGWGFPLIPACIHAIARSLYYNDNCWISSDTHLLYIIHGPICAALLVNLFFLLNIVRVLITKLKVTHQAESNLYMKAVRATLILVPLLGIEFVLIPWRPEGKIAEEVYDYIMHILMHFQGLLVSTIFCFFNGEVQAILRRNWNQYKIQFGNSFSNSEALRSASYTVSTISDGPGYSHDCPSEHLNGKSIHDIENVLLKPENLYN
Sequence of hAM1 receptor (O60895 43-175 partner): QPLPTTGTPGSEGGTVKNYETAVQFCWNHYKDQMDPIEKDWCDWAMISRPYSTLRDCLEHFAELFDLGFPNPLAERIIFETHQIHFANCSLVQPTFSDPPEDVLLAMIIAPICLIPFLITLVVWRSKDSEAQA

SMILES | EC50 (hAM1 receptor) | EC50 (hAMY3 receptor) | Max ThT signal (%) [1]
CC[C@H](C)[C@H](NC(=O)[C@H](CCC(N)=O)NC(=O)[C@H](Cc1c[nH]cn1)NC(=O)[C@H](C)NC(=O)[C@H](CC(C)C)NC(=O)[C@H](CCCNC(=N)N)NC(=O)[C@H](CCC(N)=O)NC(=O)[C@@H](NC(=O)[C@@H](NC(=O)[C@@H]1CSSC[C@H](NC(=O)[C@@H](N)CCCCN)C(=O)N[C@@H](CC(N)=O)C(=O)N[C@@H]([C@@H](C)O)C(=O)N[C@@H](C)C(=O)N[C@@H]([C@@H](C)O)C(=O)N1)[C@@H](C)O)C(C)C)C(=O)N[C@@H](Cc1ccc(O)cc1)C(=O)N[C@@H](CCC(N)=O)C(=O)N[C@@H](Cc1ccccc1)C(=O)N[C@H](C(=O)N[C@@H](C)C(=O)N[C@@H](CCCCN)C(=O)N[C@@H](CC(=O)O)C(=O)N[C@@H](CCCCN)C(=O)N[C@@H](CC(=O)O)C(=O)N[C@@H](CC(N)=O)C(=O)N[C@H](C(=O)N[C@@H](C)C(=O)N1CCC[C@H]1C(=O)N1CCC[C@H]1C(=O)N[C@H](C(=O)N[C@@H](CC(N)=O)C(=O)N[C@H](C(=O)NCC(=O)N[C@@H](CO)C(=O)N[C@@H](CC(N)=O)C(=O)NCC(=O)N1C[C@H](O)C[C@H]1C(N)=O)C(C)C)[C@@H](C)O)C(C)C)[C@@H](C)O [compound 24] (H-KCNTATCTVQRLAHQIYQFTAKDKDNVAPPTNVGSNG[Hyp]-NH2; disulfide 2-7; N-terminus assumed) | > 5000 nM | 0.008 nM | 6.800%
CC[C@H](C)[C@H](NC(=O)[C@H](CCC(N)=O)NC(=O)[C@H](Cc1c[nH]cn1)NC(=O)[C@H](C)NC(=O)[C@H](CC(C)C)NC(=O)[C@H](CCCNC(=N)N)NC(=O)[C@H](CCC(N)=O)NC(=O)[C@@H](NC(=O)[C@@H](NC(=O)[C@@H]1CSSC[C@H](NC(=O)[C@@H](N)CCCCN)C(=O)N[C@@H](CC(N)=O)C(=O)N[C@@H]([C@@H](C)O)C(=O)N[C@@H](C)C(=O)N[C@@H]([C@@H](C)O)C(=O)N1)[C@@H](C)O)C(C)C)C(=O)N[C@@H](Cc1ccc(O)cc1)C(=O)N[C@@H](CCC(N)=O)C(=O)N[C@@H](Cc1ccccc1)C(=O)N[C@H](C(=O)N[C@@H](CC(=O)O)C(=O)N[C@@H](CCCCN)C(=O)N[C@@H](CC(=O)O)C(=O)N[C@@H](C)C(=O)N[C@@H](CC(=O)O)C(=O)N[C@@H](CC(N)=O)C(=O)N[C@H](C(=O)N[C@@H](C)C(=O)N1CCC[C@H]1C(=O)N1CCC[C@H]1C(=O)N[C@H](C(=O)N[C@@H](CC(N)=O)C(=O)N[C@H](C(=O)NCC(=O)N[C@@H](CO)C(=O)N[C@@H](CC(N)=O)C(=O)NCC(=O)N1C[C@H](O)C[C@H]1C(N)=O)C(C)C)[C@@H](C)O)C(C)C)[C@@H](C)O [compound 25] (H-KCNTATCTVQRLAHQIYQFTDKDADNVAPPTNVGSNG[Hyp]-NH2; disulfide 2-7; N-terminus assumed) | > 5000 nM | 0.008 nM | 33.400%
CC[C@H](C)[C@H](NC(=O)[C@H](CCC(N)=O)NC(=O)[C@H](Cc1c[nH]cn1)NC(=O)[C@H](C)NC(=O)[C@H](CC(C)C)NC(=O)[C@H](CCCNC(=N)N)NC(=O)[C@H](CCC(N)=O)NC(=O)[C@@H](NC(=O)[C@@H](NC(=O)[C@@H]1CSSC[C@H](NC(=O)[C@@H](N)CCCCN)C(=O)N[C@@H](CC(N)=O)C(=O)N[C@@H]([C@@H](C)O)C(=O)N[C@@H](C)C(=O)N[C@@H]([C@@H](C)O)C(=O)N1)[C@@H](C)O)C(C)C)C(=O)N[C@@H](Cc1ccc(O)cc1)C(=O)N[C@@H](CCC(N)=O)C(=O)N[C@@H](Cc1ccccc1)C(=O)N[C@H](C(=O)N[C@@H](CC(=O)O)C(=O)N[C@@H](CCCCN)C(=O)N[C@@H](CC(=O)O)C(=O)N[C@@H](CCCCN)C(=O)N[C@@H](C)C(=O)N[C@@H](CC(N)=O)C(=O)N[C@H](C(=O)N[C@@H](C)C(=O)N1CCC[C@H]1C(=O)N1CCC[C@H]1C(=O)N[C@H](C(=O)N[C@@H](CC(N)=O)C(=O)N[C@H](C(=O)NCC(=O)N[C@@H](CO)C(=O)N[C@@H](CC(N)=O)C(=O)NCC(=O)N1C[C@H](O)C[C@H]1C(N)=O)C(C)C)[C@@H](C)O)C(C)C)[C@@H](C)O [compound 26] (H-KCNTATCTVQRLAHQIYQFTDKDKANVAPPTNVGSNG[Hyp]-NH2; disulfide 2-7; N-terminus assumed) | > 5000 nM | 0.008 nM | 0.000%
CC[C@H](C)[C@H](NC(=O)[C@H](CCC(N)=O)NC(=O)[C@H](Cc1c[nH]cn1)NC(=O)[C@H](C)NC(=O)[C@H](CC(C)C)NC(=O)[C@H](CCCNC(=N)N)NC(=O)[C@H](CCC(N)=O)NC(=O)[C@@H](NC(=O)[C@@H](NC(=O)[C@@H]1CSSC[C@H](NC(=O)[C@@H](N)CCCCN)C(=O)N[C@@H](CC(N)=O)C(=O)N[C@@H]([C@@H](C)O)C(=O)N[C@@H](C)C(=O)N[C@@H]([C@@H](C)O)C(=O)N1)[C@@H](C)O)C(C)C)C(=O)N[C@@H](Cc1ccc(O)cc1)C(=O)N[C@@H](CCC(N)=O)C(=O)N[C@@H](Cc1ccccc1)C(=O)N[C@H](C(=O)N[C@@H](CC(=O)O)C(=O)N[C@@H](CCCCN)C(=O)N[C@@H](CC(=O)O)C(=O)N[C@@H](CCCCN)C(=O)N[C@@H](CC(=O)O)C(=O)N[C@@H](CC(N)=O)C(=O)N[C@@H](C)C(=O)N[C@@H](C)C(=O)N1CCC[C@H]1C(=O)N1CCC[C@H]1C(=O)N[C@H](C(=O)N[C@@H](CC(N)=O)C(=O)N[C@H](C(=O)NCC(=O)N[C@@H](CO)C(=O)N[C@@H](CC(N)=O)C(=O)NCC(=O)N1C[C@H](O)C[C@H]1C(N)=O)C(C)C)[C@@H](C)O)[C@@H](C)O [compound 27] (H-KCNTATCTVQRLAHQIYQFTDKDKDNAAPPTNVGSNG[Hyp]-NH2; disulfide 2-7; N-terminus assumed) | > 5000 nM | 0.008 nM | 21.80%
CC[C@H](C)[C@H](NC(=O)[C@H](CCC(N)=O)NC(=O)[C@H](Cc1c[nH]cn1)NC(=O)[C@H](C)NC(=O)[C@H](CC(C)C)NC(=O)[C@H](CCCNC(=N)N)NC(=O)[C@H](CCC(N)=O)NC(=O)[C@@H](NC(=O)[C@@H](NC(=O)[C@@H]1CSSC[C@H](NC(=O)[C@@H](N)CCCCN)C(=O)N[C@@H](CC(N)=O)C(=O)N[C@@H]([C@@H](C)O)C(=O)N[C@@H](C)C(=O)N[C@@H]([C@@H](C)O)C(=O)N1)[C@@H](C)O)C(C)C)C(=O)N[C@@H](Cc1ccc(O)cc1)C(=O)N[C@@H](CCC(N)=O)C(=O)N[C@@H](Cc1ccccc1)C(=O)N[C@H](C(=O)N[C@@H](CC(=O)O)C(=O)N[C@@H](CCCCN)C(=O)N[C@@H](CC(=O)O)C(=O)N[C@@H](CCCCN)C(=O)N[C@@H](CC(=O)O)C(=O)N[C@@H](CC(N)=O)C(=O)N[C@H](C(=O)N[C@@H](C)C(=O)N1CCC[C@H]1C(=O)N[C@@H](C)C(=O)N[C@H](C(=O)N[C@@H](CC(N)=O)C(=O)N[C@H](C(=O)NCC(=O)N[C@@H](CO)C(=O)N[C@@H](CC(N)=O)C(=O)NCC(=O)N1C[C@H](O)C[C@H]1C(N)=O)C(C)C)[C@@H](C)O)C(C)C)[C@@H](C)O [compound 28] (H-KCNTATCTVQRLAHQIYQFTDKDKDNVAPATNVGSNG[Hyp]-NH2; disulfide 2-7; N-terminus assumed) | > 5000 nM | 0.008 nM | 8.200%
